Row | melting point | Compound
1 | 115 to 135 °C | C[C@H](NC(=O)Cc1ccccc1F)C(=O)N[C@@H]1C(=O)Nc2ccccc2O[C@@H]1c1ccccc1
2 | 130 °C | CC(C)Oc1cc(C(C)C)c2c(c1)S(=O)(=O)N(c1c(F)c(F)nc(F)c1F)C2=O
3 | 212 to 215 °C | CC(C)C(=O)Oc1ccc2nc(NC(=O)Nc3ccccc3)sc2c1
4 | 121 to 122 °C | CCOc1nn(-c2ccc(C(F)(F)F)cn2)cc1CCCOc1cc(CCC(=O)O)n(-c2ccccc2)n1
5 | 186 °C | Cn1cncc1C(O)(c1ccc(Cl)cc1)c1ccc2nc(NN)nc(-c3cccc(Cl)c3)c2c1 (centres undefined)
6 | 75 to 77 °C | CC(=O)Cc1nc(/C=C/c2cccc(Cl)c2F)no1
7 | 125 to 128 °C | COc1ccc(N2N=C(C)C(C(=O)Nc3ccc(F)cc3)C2=O)cc1 (centres undefined)
8 | 195 to 203 °C | CC(C)NC1=NS(=O)(=O)c2ccc(CC#N)cc2N1
9 | 174 to 176 °C | Fc1c(Cl)cccc1COc1cccnc1NC(=S)Nc1ccc(Cl)cc1
10 | 110 °C | CON=CCNC(=O)c1c(I)cccc1C(=O)Nc1ccc(C(F)(F)C(F)(F)F)cc1C
11 | > 250 °C | O=C(O)C1=CSC2C(=Cc3ccc4nc5n(c4c3)CCCS5)C(=O)N12 (centres undefined)
12 | 167 to 168 °C | C=C(c1ccc(C(=O)OC)cc1)c1cc2c(cc1C)C(C)(C)CCC2(C)C
13 | 111 to 113 °C | COC(=O)[C@H](Cc1cc(Cl)c(OCCc2coc(-c3cccc(OCc4ccccc4)c3)n2)c(Cl)c1)NC(=O)C(F)(F)F
14 | 162 to 164 °C | O=c1oc(-c2ccccc2)nc2cccc(F)c12

The remaining lines, values behind:

Row | Compound | melting point
15 | CNC(=O)c1ccc2c(c1)CCOC2CCN1CCN(c2ccc(OC)cc2)CC1 (centres undefined) | 174 to 176 °C
16 | CCOP(=O)(CC1(O)CC=Cc2ccccc21)OCC (centres undefined) | 120 to 121 °C
17 | O=C(O)C=Cc1cccc(Oc2ccccc2)c1 | 107 to 109 °C
18 | O=C(NNS(=O)(=O)c1ccccc1)c1ccc2ncccc2c1 | 211 to 214 °C
19 | CCOP(=O)(/C=C/c1nc(-c2ccccc2)oc1COc1ccc(OCc2nc(-c3ccccc3)oc2C)cc1)OCC | 124 to 125 °C
20 | COc1ccc(Oc2ccc(C(=O)N(C3CCCCC3)C3CCCC3)cc2)cc1OC | 154 °C
21 | COC(=O)c1ccc(-c2nnc(-c3ccc(OC(F)(F)C(F)(F)F)cc3)o2)cc1 | 185 to 191 °C
22 | O=C(CCl)Nc1cccc(NC(=O)Nc2ccc(N(CCCl)CCCl)cc2)c1 | 232 to 233 °C
23 | O=C1CCC(c2ccccc2)(c2ccccc2)[C@@H]2CN(C(=O)Cc3ccc(F)cc3)C[C@H]12 (racemic) | 210 °C
24 | CN(CCCNc1ncc(Cc2ccc(O)cc2)c(=O)[nH]1)c1ccccn1 | 109 to 111 °C
25 | O=C(CCc1ccccc1)CN1C(=O)CC1S(=O)c1ccccc1 (mixture of isomers) | 49 to 51 °C
26 | NC(=O)c1cccc(OCCCCC/C=C\c2ccc(Cl)o2)c1 | 53 to 56 °C
27 | C#CCCN1C(=O)c2ccccc2C1=O | 137 to 139 °C
28 | O=C1CCN(Cc2cccnc2)CC1C(c1ccccc1)c1ccccc1 (centres undefined) | 121 to 122 °C
29 | NS(=O)(=O)c1ccccc1CN1CCCC1 | 110 to 112 °C
30 | CCCC1=C(C(=O)OCC)C(c2ccncc2)c2c[nH]nc2N1 (centres undefined) | 266 °C
31 | CC(=O)Nc1ccc(S(=O)(=O)Nc2cccnc2Nc2ccccc2)cc1 | 234 to 236 °C
32 | Nc1ccnc(N2CCC(c3ccc(S(N)(=O)=O)cc3)CC2)c1 | 290 to 295 °C
33 | CCc1nc(-c2ncn(-c3cccc(O)c3)c2C)no1 | 226 to 227 °C
34 | Cc1c(Br)ccc(N)c1S(C)(=O)=O | 103 to 106 °C
35 | CCc1cccc(CC)c1NC(=O)CC1c2ccccc2Oc2ccccc21 | 228 to 230 °C
36 | O=C(O)c1sccc1OC(F)F | 98 to 100 °C
37 | CC(=O)Nc1ccc(S(=O)(=O)Nc2ccc(S(=O)(=O)C=CC#N)cc2)cc1 | 204 to 205 °C
38 | CC(C)NC(=O)OCC(=O)c1ccc(Cl)cc1 | 163 to 164 °C
39 | CC12OCC(CO)(CO1)CO2 | 110 to 112 °C
